Experimental data taken from paper PMC8285372, “Biochemical and functional characterization of mutant KRAS epitopes validates this oncoprotein for immunological targeting” (Nature Communications, 2021).
No end group written: not given here.

Experiments:
HLA-B*07:02 [1] = molecular target: T1, HLA-B*07:02 (Homo sapiens, UniProt P01889); type: binding
HLA-A*02:01 [2] = molecular target: T2, HLA-A*02:01 (Homo sapiens, UniProt P04439, D140Y/D185E/D98H/E176V/E277Q/G131W/G231S/I119V/I121R/I166T/I218V/L300P/L318F/N151K/N90K/P208A/P217A/Q86G/Q94H/R138H/R169H/T345S); test: fluorescence polarization competitive peptide-binding assay
HLA-B*07:02 [3] = molecular target: T1, HLA-B*07:02; test: as above; details: Experimental Affinity IC50
HLA-A*03:01 [4] = molecular target: T3, HLA-A*03:01 (Homo sapiens, UniProt P04439); test: p-HLA complex stability, scintillation proximity assay of β2-microglobulin dissociation; type: binding
HLA-A*11:01 [5] = molecular target: T4, HLA-A*11:01 (Homo sapiens, UniProt P04439, A114D/D185E/E176A/F33Y/L180Q/S129P/T187R); test: as above; type: binding
HLA-A*02:01 [6] = molecular target: T2, HLA-A*02:01; type: binding
HLA-A*03:01 [7] = molecular target: T3, HLA-A*03:01; test: fluorescence polarization competitive peptide-binding assay
HLA-A*11:01 [8] = molecular target: T4, HLA-A*11:01; test: as above

RPIDDRFGLAL
Experimental Stability (t1/2) Mean (HLA-B*07:02 [1]): 1.1 h
Half_life, Setp #1 (HLA-B*07:02 [1]): 1.2 h
Half_life, Setp #2 (HLA-B*07:02 [1]): 1.1 h
k, Setp #1 (HLA-B*07:02 [1]): 0.5749
k, Setp #2 (HLA-B*07:02 [1]): 0.6051

KLVVVGARGV [Peptide 5-14R]
IC50 (HLA-A*02:01 [2]): 20700 nM

GAGGVGKSAL [Peptide 10-19]
IC50 (HLA-B*07:02 [3]): 76900 nM

RVKLSALTLK
Experimental Stability (t1/2) Mean (HLA-A*03:01 [4]): 12.3 h
Half_life, Setp #1 (HLA-A*03:01 [4]): 11.6 h
Half_life, Setp #2 (HLA-A*03:01 [4]): 13.1 h
k, Setp #1 (HLA-A*03:01 [4]): 0.0597
k, Setp #2 (HLA-A*03:01 [4]): 0.053

VLWDIPTPK
Experimental Stability (t1/2) Mean (HLA-A*03:01 [4]): 4.7 h
Half_life, Setp #1 (HLA-A*03:01 [4]): 4.5 h
Half_life, Setp #2 (HLA-A*03:01 [4]): 4.9 h
k, Setp #1 (HLA-A*03:01 [4]): 0.1534
k, Setp #2 (HLA-A*03:01 [4]): 0.1427
Experimental Stability (t1/2) Mean (HLA-A*11:01 [5]): 8 h
Half_life, Setp #1 (HLA-A*11:01 [5]): 8.4 h
Half_life, Setp #2 (HLA-A*11:01 [5]): 7.5 h
k, Setp #1 (HLA-A*11:01 [5]): 0.0825
k, Setp #2 (HLA-A*11:01 [5]): 0.093

FLIDLAFLI
Experimental Stability (t1/2) Mean (HLA-A*02:01 [6]): 10.1 h
Half_life, Setp #1 (HLA-A*02:01 [6]): 11 h
Half_life, Setp #2 (HLA-A*02:01 [6]): 9.2 h
k, Setp #1 (HLA-A*02:01 [6]): 0.063
k, Setp #2 (HLA-A*02:01 [6]): 0.0751

TVNPIVTEK [HLA-A*11:01 control, Genome polyprotein, Dengue virus, IEDB 67094]
Experimental Stability (t1/2) Mean (HLA-A*11:01 [5]): 11.4 h
Half_life, Setp #1 (HLA-A*11:01 [5]): 11.8 h
Half_life, Setp #2 (HLA-A*11:01 [5]): 11 h
k, Setp #1 (HLA-A*11:01 [5]): 0.0587
k, Setp #2 (HLA-A*11:01 [5]): 0.0631

ASLPTTIAK
Experimental Stability (t1/2) Mean (HLA-A*11:01 [5]): 22.5 h
Half_life, Setp #1 (HLA-A*11:01 [5]): 23.8 h
Half_life, Setp #2 (HLA-A*11:01 [5]): 21.1 h
k, Setp #1 (HLA-A*11:01 [5]): 0.0291
k, Setp #2 (HLA-A*11:01 [5]): 0.0328

RPIDDRFGL
Experimental Stability (t1/2) Mean (HLA-B*07:02 [1]): 3.2 h
Half_life, Setp #1 (HLA-B*07:02 [1]): 4 h
Half_life, Setp #2 (HLA-B*07:02 [1]): 2.5 h
k, Setp #1 (HLA-B*07:02 [1]): 0.174
k, Setp #2 (HLA-B*07:02 [1]): 0.2746

KLAQRRVFH
Experimental Stability (t1/2) Mean (HLA-A*03:01 [4]): 3.5 h
Half_life, Setp #1 (HLA-A*03:01 [4]): 3.5 h
Half_life, Setp #2 (HLA-A*03:01 [4]): 3.6 h
k, Setp #1 (HLA-A*03:01 [4]): 0.2008
k, Setp #2 (HLA-A*03:01 [4]): 0.1902

VVGARGVGK [Peptide 8-16R]
IC50 (HLA-A*03:01 [7]; Experimental Affinity IC50): 5300 nM
IC50 (HLA-A*11:01 [8]): 634 nM

GRAFVTIGK
IC50 (HLA-B*07:02 [3]): 371 nM

ALNTITNLK
Experimental Stability (t1/2) Mean (HLA-A*03:01 [4]): 10.6 h
Half_life, Setp #1 (HLA-A*03:01 [4]): 11.4 h
Half_life, Setp #2 (HLA-A*03:01 [4]): 9.7 h
k, Setp #1 (HLA-A*03:01 [4]): 0.061
k, Setp #2 (HLA-A*03:01 [4]): 0.0711

VVVGARGVGK [Peptide 7-16R]
IC50 (HLA-A*03:01 [7]; Experimental Affinity IC50): 3240 nM
IC50 (HLA-A*03:01 [7]; Experimental Affinity log10[IC50]): ≤ 3.59 nM
IC50 (HLA-A*11:01 [8]): 566 nM

ALLAVGATK [gp17-25]
IC50 (HLA-A*03:01 [7]; Experimental Affinity IC50): 962 nM
IC50 (HLA-A*11:01 [8]): 225 nM

KITDFGIAK [HLA-A*11:01 control, Serine/threonine-protein kinase PknA, Mycobacterium tuberculosis, IEDB 109407]
Experimental Stability (t1/2) Mean (HLA-A*11:01 [5]): 15.6 h
Half_life, Setp #1 (HLA-A*11:01 [5]): 16.7 h
Half_life, Setp #2 (HLA-A*11:01 [5]): 14.6 h
k, Setp #1 (HLA-A*11:01 [5]): 0.0415
k, Setp #2 (HLA-A*11:01 [5]): 0.0476

SPRERLVLTL
Experimental Stability (t1/2) Mean (HLA-B*07:02 [1]): 1 h
Half_life, Setp #1 (HLA-B*07:02 [1]): 1.1 h
Half_life, Setp #2 (HLA-B*07:02 [1]): 0.9 h
k, Setp #1 (HLA-B*07:02 [1]): 0.6505
k, Setp #2 (HLA-B*07:02 [1]): 0.7477

KLVVVGAGGV [Peptide 5-14]
IC50 (HLA-A*02:01 [2]): 10900 nM

RLARAIIEL [HLA-A*02:01 control, Genome polyprotein, West Nile virus, IEDB 54476]
Experimental Stability (t1/2) Mean (HLA-A*02:01 [6]): 3 h
Half_life, Setp #1 (HLA-A*02:01 [6]): 3.3 h
Half_life, Setp #2 (HLA-A*02:01 [6]): 2.8 h
k, Setp #1 (HLA-A*02:01 [6]): 0.2104
k, Setp #2 (HLA-A*02:01 [6]): 0.2479
